Read-outs that look alike come from different tables or passages of the source. Blank lines part the entries; values can stand above or below the compound they belong to.
What was measured:
[1] = target: T1, ρ1 GABAC T244S mutant receptors (Homo sapiens, UniProt P24046, T265S); test: Two-electrode voltage-clamp electrophysiology, Xenopus oocytes expressing ρ1 T244S mutant receptors; type: cell-based; conditions: for effect of T244S mutation on antagonist potency: ρ1 T244S compared to WT
T1 construct: expressed in transfected cells; host or cells: Xenopus laevis oocytes injected with cRNA
Method: (§1) Pairs of the complementary mutagenic oligonucleotide primers were first designed to introduce single point mutations at human ρ1 GABAC subunit using UniProt. Primers were made by life technologies (Life Technologies^TM Australia Pty Ltd).
(§2) Site-directed mutagenesis was performed using QuikChange II site-directed mutagenesis kit as described by the manufacturer (Stratagene).
(§3) ρ1 GABAC WT and mutant plasmids DNA were linearized by incubation with Xba1. ρ1 WT and mutant cRNA were synthesized using the T7 Transcription mMESSAGE mMACHINE Kit (Ambion, Austin, TX, USA) following the procedure described by the manufacture. The quantity and quality of synthesized CRNA was determined by absorbance at 260–280 nm using Nanodrop Spectrophotometer (Thermo Scientific, Wilmington, DE, USA). The purity of synthesized cRNA was confirmed by agarose gel electrophoresis (0.9%) using the GelDoc 1000 (Bio-Rad Laboratories, Hercules, CA USA).
(§4) A microprocessor-controlled micropipette puller (PUL-100, World Precision Instruments, Inc. FL, USA) was used to make micropipettes then RNA pulled up into the micropipette by a positive-displacement using micro-injector (Nanoliter micro-injector, World Precision Instruments, Inc. FL, USA). Oocytes were sorted and healthy ones were injected with 35–50 ng of ρ cRNA unless otherwise mentioned.
(§5) The injected oocytes were incubated for between two and four days after injection with desired RNA. Two-electrode voltage clamp instrument; Geneclamp 500 amplifier (Axon Instrument, Sydney, NSW, Australia) and Chart version 5.5.6 was used to measure the various activities at the receptors expressed by these oocytes. The recording microelectrodes were prepared by pulling using PUL-100 micropipette puller (World precision Instruments, Inc. FL, USA) and filled with 3 M KCl.
(§6) Dose response curves were generated using GraphPad PRISM 5.02 (GraphPad Software San Diego, CA).
(§7) The inhibitory concentration curves were generated using GraphPad PRISM 5.02 and IC50 values were calculated using Eq 2.

[2] = target: T2, human ρ1 GABAC WT receptors (Homo sapiens, UniProt P24046); test: Two-electrode voltage-clamp electrophysiology, Xenopus oocytes expressing ρ1 GABAC WT receptors; type: cell-based; conditions: for Emax: read-out: efficacy relative to the GABA maximal response, ligand applied alone; for additive effect on GABA EC50 response (GABA EC50 response set to 100%): co-applied with GABA EC50
T2 construct: expressed in transfected cells; host or cells: Xenopus laevis oocytes injected with cRNA
Method: Human ρ1 cDNA subcloned into pcDNA1.1 (Invitrogen, San Diego, CA, USA) was kindly provided by Dr. George Uh1 (National Institute for Drug Abuse, Baltimore, MD, USA).
as §3, §4, §5, §6, §7

[3] = target: T3, ρ1 GABAC T244A mutant receptors (Homo sapiens, UniProt P24046, T265A); test: Two-electrode voltage-clamp electrophysiology, Xenopus oocytes expressing ρ1 T244A mutant receptors; type: cell-based
T3 construct: expressed in transfected cells; host or cells: Xenopus laevis oocytes injected with cRNA (raised to 300 ng/μl)
Method: as §1, §2, §3, §4, §5, §6

[4] = target: T4, ρ1 GABAC T244C mutant receptors (Homo sapiens, UniProt P24046, T265C); test: Two-electrode voltage-clamp electrophysiology, Xenopus oocytes expressing ρ1 T244C mutant receptors; type: cell-based
T4 construct: expressed in transfected cells; host or cells: Xenopus laevis oocytes injected with cRNA (raised to 300 ng/μl)
Method: as §1, §2, §3, §4, §5
Current responses were normalized to the maximum GABA-activated current (or other ligand which is stated as required) and expressed as a percentage, which was fitted by least squares to Hill equation (Eq 1). Dose response curves were generated using GraphPad PRISM 5.02 (GraphPad Software San Diego, CA).
GABA was first tested on all mutant receptors in order to determine the functionality of these receptors.

[5] = target: T1, ρ1 GABAC T244S mutant receptors; conditions: agonist effects eliminated; cited from earlier work
[6] = target: T2, human ρ1 GABAC WT receptors; set-up: method as in PMID 8386310; conditions: agonist applied alone; cited from earlier work
[7] = read-out: efficacy relative to the GABA maximal response, ρ1 T244S, ligand applied alone
[8] = high GABA concentrations, 300 ng/μl RNA

T4 sequence (P24046 22-479 T265C): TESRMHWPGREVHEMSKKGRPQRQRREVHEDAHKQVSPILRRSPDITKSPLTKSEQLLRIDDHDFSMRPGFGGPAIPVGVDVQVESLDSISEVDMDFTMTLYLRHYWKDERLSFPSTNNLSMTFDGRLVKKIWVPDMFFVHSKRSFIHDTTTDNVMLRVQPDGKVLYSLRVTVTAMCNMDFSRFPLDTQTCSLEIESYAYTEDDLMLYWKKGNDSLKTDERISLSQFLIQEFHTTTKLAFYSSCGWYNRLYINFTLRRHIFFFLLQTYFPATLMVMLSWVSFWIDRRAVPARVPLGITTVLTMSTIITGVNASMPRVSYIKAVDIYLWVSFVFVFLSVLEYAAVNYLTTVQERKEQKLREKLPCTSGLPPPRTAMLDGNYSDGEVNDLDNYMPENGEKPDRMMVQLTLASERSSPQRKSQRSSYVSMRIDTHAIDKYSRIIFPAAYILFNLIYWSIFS
T1 sequence (P24046 22-479 T265S): as the sequence (P24046 22-479 T265C) above, with C244S counted along it
T2 sequence (P24046 22-479): as the sequence (P24046 22-479 T265C) above, with C244T counted along it
T3 sequence (P24046 22-479 T265A): as the sequence (P24046 22-479 T265C) above, with C244A counted along it

IC50 [1]: 17 µM | IC50 [2]: 37 µM | agonist character ([2]; ρ1 WT, applied alone): weak partial agonists | efficacy compared with GABA [3]: less efficacious than GABA
SMILES: NCCCCC(=O)O [5-aminovaleric acid]

Emax [1, 7]: 2% | magnitude of response, % of GABA IMAX ([1]; ρ1 T244S, 300 μM applied alone): less than 2% | agonist activity ([1]; ρ1 T244S, applied alone, minimal response at 300 μM): almost inactive | enhancement of the GABA EC50 effect ([1]; ρ1 T244S, co-applied with GABA EC50, at 100 μM ligand): ~20% | EC50 ([2]; agonist applied alone, ρ1 WT): 95 µM | Emax ([2]; ρ1 WT): 60% | additive effect, % of GABA EC50 efficacy ([2]; ρ1 WT, co-applied with GABA EC50, at 100 μM ligand): 150%
SMILES: NC/C=C\C(=O)O [CACA]

response ([4]; 30 mM, five times the RNA normally injected): very weak response | sensitivity of receptors to GABA ([4]; GABA 30mM, 50–100 ng/μl RNA): non-functional or insensitive | sensitivity of receptors to GABA [4, 8]: weakly responsive | effect on β-alanine response ([3]; 30 mM co-applied with 30 mM β-alanine): moderately inhibits | sensitivity of receptors to GABA ([3]; GABA 30mM, 50–100 ng/μl RNA): non-functional or insensitive | sensitivity of receptors to GABA [3, 8]: weakly responsive
SMILES: NCCCC(=O)O [GABA, γ-aminobutyric acid]

activation ([2]; ρ1 WT, applied alone): very weak efficacy and potency | effect on GABA EC50 response ([2]; ρ1 WT, co-applied with GABA EC50, concentrations below 100 μM): weak additive effects | effect on GABA EC50 response ([2]; ρ1 WT, co-applied with GABA EC50, concentrations of 100 μM and above): weakly antagonizes | potency and efficacy compared with GABA ([4]; reversible responses): greater potency and efficacy than GABA
SMILES: CS(=O)(=O)SCCN [MTSEA, 2-aminoethylmethane thiosulfonate]

EC50 ([1]; agonist applied alone, ρ1 T244S): 14 µM | Emax [1, 7]: 110% | fold decrease in potency/activity ([1]; ρ1 T244S compared to ρ1 WT): 25 fold | Emax ([2]; ρ1 WT): 95% | efficacy compared with GABA [3]: less efficacious than GABA
SMILES: NC/C=C/C(=O)O [TACA, trans-aminocrotonic acid]

SMILES: Oc1noc2c1CCNC2 [THIP, 4,5,6,7-tetrahydroisoxazolo[5,4-c]pyridin-3-ol]
effect of T244S mutation on antagonist potency [1]: no effect

SMILES: CP(=O)(O)C1=CCNCC1 [TPMPA]
effect of T244S mutation on antagonist potency [1]: no effect | IC50 ([2]; ρ1 WT): 2.3 µM | effect when applied alone [3]: no effect | effect on β-alanine response ([3]; 1 mM against β-alanine response (30 mM)): weakly antagonizes

direct activation of receptors ([1]; ρ1 T244S, at mM concentrations, applied alone): 2% | additive effect on GABA EC50 response (GABA EC50 response set to 100%) ([1]; ρ1 T244S, co-applied with GABA EC50): 145% | maximum efficacy relative to the GABA maximal response at 30 mM ([1]; ρ1 T244S, ligand applied alone): 8% | agonist character ([2]; ρ1 WT, applied alone): weak partial agonists | direct activation of receptors ([2]; ρ1 WT, at mM concentrations, applied alone): 25% | additive effect on GABA EC50 response (GABA EC50 response set to 100%) ([2]; ρ1 WT): 180% | efficacy compared with GABA [3]: less efficacious than GABA
SMILES: NCC(=O)O [glycine]

SMILES: O=C(O)Cc1c[nH]cn1 [imidazole-4-acetic acid]
mode of action at mutant receptors [5]: acted only as competitive antagonists

IC50 [1]: 25.3 µM | Emax ([2]; ρ1 WT): 45% | additive effect on GABA EC50 response (GABA EC50 response set to 100%) ([2]; ρ1 WT): 135%
SMILES: O=C(O)C1=CCNCC1 [isoguvacine]
EC50 [6]: 200 µM

SMILES: NCc1cc(=O)[nH]o1 [muscimol]
mode of action at mutant receptors [5]: acted only as competitive antagonists | efficacy compared with GABA [3]: less efficacious than GABA

SMILES: NCCC(=O)O [β-alanine]
IC50 [1]: 1000 µM | Emax ([1]; read-out: maximum efficacy relative to the GABA maximal response at 30 mM, ρ1 T244S, ligand applied alone): 5% | weak additive effect on GABA EC50 response ([1]; xenopus oocytes): 115% | fold increase of IC50 ([1]; ρ1 T244S compared to ρ1 WT, against GABA EC50): 8 fold | inhibition of GABA EC50 ([1]; ρ1 T244S, concentrations greater than 100 μM): 60% | IC50 [2]: 120 µM | weak additive effect on GABA EC50 response ([2]; xenopus oocytes): 125% | agonist character ([2]; ρ1 WT, applied alone): weak partial agonists | inhibition of GABA EC50 ([2]; ρ1 WT, concentrations greater than 100 μM): 60% | EC50 ([3]; 300 ng/μl mutant RNA injected): 1500 µM | efficacy compared with GABA ([3]; 30 mM concentration): approximately two times more efficacious than GABA

Reference: publication PMC4887073, “Investigating the Role of Loop C Hydrophilic Residue ‘T244’ in the Binding Site of ρ1 GABAC Receptors via Site Mutation and Partial Agonism” (PLoS ONE, 2016)
